Tested on: STING inhibition in human whole blood (IFNα2α production)
Assay: Human whole blood assay (HWBA): cGAMP-stimulated IFNα2α production
Assay type: cell-based
Details: Homo sapiens
Procedure, shortened: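 Na-citrate human whole blood from ≥3 healthy donors, preincubated 60 min at room temperature with compound (8 concentrations, top 10 μM, ~1:5 steps, 0.1% DMSO), then stimulated with cGAMP and incubated 22 h at 37 °C. Plasma IFNα2α measured by MSD immunoassay; % control versus stimulated/unstimulated wells, IC50 by 4-parameter logistic fit.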

| IC50 [µM] | Structure (SMILES) |
| --- | --- |
| 0.75 | Cc1c(C(C)C)c(-c2cccc3nn(C[C@H](O)c4ccccc4)cc23)nn1-c1cc2cn(C)nc2nc1C1CCCN1 (stereo partly drawn) [Example 111, (1R)-2-(4-{5-Methyl-1-[2-methyl-6-(pyrrolidin-2-yl)-2H-pyrazolo[3,4-b]pyridin-5-yl]-4-(propan-2-yl)-1H-pyrazol-3-yl}-2H-indazol-2-yl)-1-phenylethan-1-ol] |
| 0.17 | Cc1c(C(C)C)c(-c2cccc3nn(C[C@H](O)c4ccccc4)cc23)nn1-c1cc2cn(C)nc2nc1CN(C)C [Example 112] |
| 1.2 | Cc1c(C(C)C)c(-c2cccc3nn(C[C@H](O)c4ccccc4)cc23)nn1-c1cc2cn(C)nc2nc1C(C)(C)C [Example 113, (1R)-2-[4-(1-{6-tert-butyl-2-methyl-2H-pyrazolo[3,4-b]pyridin-5-yl}-5-methyl-4-(propan-2-yl)-1 H-pyrazol-3-yl)-2H-indazol-2-yl]-1-phenylethan-1-ol] |

Reference: patent publication US20260265244A1, “HETEROCYCLIC COMPOUNDS AS STING ANTAGONISTS” (Boehringer Ingelheim International GmbH, priority 2022, published 2026)
